Test results from patent US12454509B2, “Local anesthetics with selective-sensory nerve blockade” (Children's Medical Center Corporation, priority 2019, dated 2025).

Assays:
C2C12 Mouse myoblasts = assay: Cytotoxicity in C2C12 myotubules; assay type: cell-based; details: C2C12 cells; for cytotoxicity compared with ropivacaine and bupivacaine (in words): FIG. 2 / Table 2; for IC50: Mus musculus, cytotoxicity, exposure up to 24 h
Description: (§1) C2C12 Mouse myoblasts [American Type Culture Collection (ATCC) CRL-1772] were cultured to proliferate in DMEM supplemented with 20% FBS and 100 Penicillin Streptomycin. Cell culture supplies were obtained from Invitrogen, unless otherwise noted. Cells were plated at 50,000 cells per mL in DMEM with 2% horse serum and 1% Penn Strep, and left to differentiate into myotubules for 10-14 days. During differentiation, media were exchanged every 2 to 3 days. Cell viability and proliferation were studied after exposures to drugs for up to 24 h. PC12 cells (ATCC, CRL-1721) originating from rat adrenal gland pheochromocytoma were grown in 24-well tissue culture dishes (CellBind; Corning) with F-12K (ATCC) supplemented with 12.5% horse serum (Gibco), 2.5% FBS (Gibco), and 1% Penn Strep (Sigma). For neuronal induction (PC12), cells were seeded at a relative low density of 5×10^4 cells/cm2 and 50 ng/mL NGF was added 24 h after seeding. Cell viability and proliferation were evaluated as for C2C12 cells. Experiments with PC12 cells were conducted for up to 24 hours.

PC12 cells = assay: Cytotoxicity in PC12 cells; assay type: cell-based, rat; details: for cytotoxicity compared with ropivacaine and bupivacaine (in words): FIG. 1 / Table 2; for IC50: Rattus norvegicus, PC-12, cytotoxicity, exposure up to 24 h
Description: as §1

sciatic nerve [1] = assay: Sciatic nerve block in rats: duration of motor block, weight-bearing test; assay type: in vivo; details: rat sciatic nerve injection 0.3 mL
From the text: (§2) Sciatic Nerve Block and Neurobehavioral Testing. Animals were cared for in compliance with protocols approved by the Children's Hospital Animal Care and Use Committee, and the Massachusetts Institute of Technology Committee on Animal Care, which conformed to guidelines of the International Association for the Study of Pain. Adult male Sprague-Dawley rats (Charles River Laboratories) weighing 320-450 g were housed in groups, in a 6 AM to 6 PM light-dark cycle. Under brief isoflurane-oxygen anesthesia, a 23G needle was introduced postero-medial to the greater trochanter, until bone was contacted, and 0.3 mL of test solution was injected over the sciatic nerve. Thermal nociception was assessed by a modified hotplate test, and motor function via a weight-bearing test. […] Motor strength was assessed with a weight-bearing test. In brief, the animal was held over a digital balance such that it could bear weight with 1 hind paw at a time. The maximum weight that it could bear was recorded. The duration of motor blockade was defined as the time for weight bearing to return halfway to normal from maximal block. The halfway point for each rat was defined as […].

sciatic nerve [2] = assay: Sciatic nerve block in rats: duration of thermal nociceptive (sensory) block, modified hotplate test; assay type: in vivo, rat; details: for Sensory:Motor Block Ratio: rat sciatic nerve block; for Block Duration (min) Sensory: rat sciatic nerve injection 0.3 mL
From the text: as §2

hERG = hERG (Homo sapiens, UniProt Q12809); assay: Whole-cell patch clamp, hERG current in stably transfected HEK cells; details: for hERG current amplitude, percent reduction / hERG current amplitude, percent reduction, mean ± SE: human
Description: (§3) These experiments were designed to examine the acute effects of 4Sa (ZYK2312-1), 4Sb (ZYK2312-2), and bupivacaine on hERG and peak Nav1.5 currents recorded from stably transfected HEK cells.
(§4) Experimental Methods: Currents were measured using the whole-cell variant of the patch clamp method. Glass pipettes were pulled from borosilicate glass by a horizontal puller (Sutter Instruments, USA). Pipette tip resistance was approximately 1 to 2 MΩ when filled with internal solutions. Series resistance was compensated electronically by approximately 60-80%. Bath temperature was measured by a thermistor placed near the cell under study. An Axopatch 1-B amplifier (Axon Instruments, Foster City, CA) was used for whole-cell voltage clamping. Creation of voltage clamp pulses and data acquisition was controlled by a computer running pClamp software (ver 9.2 Axon Instruments). After rupture of the cell membrane (entering whole-cell mode), current kinetics and amplitudes were allowed to stabilize as the cell was dialyzed with internal solution and paced every 5 seconds (typically 2 to 3 minutes). Peak INa was elicited using a pulse pattern with fixed amplitudes (conditioning prepulse: −120 mV for 50 ms; depolarizing test step to −30 mV for 20 ms). hERG current was elicited with a 500 ms pulse to +10 mV followed by a 500 ms pulse to −40 mV (holding potential=[…]). Cells were perfused at each testing concentration until a steady-state was reached.
(§5) Raw data and mean±SEM are given. Data are presented as percent reduction of current amplitude. […] Each cell served as its own control. A nonlinear curve-fitting routine was utilized to fit a three-parameter Hill equation to the results using MicroCal Origin, version 6.0 software. The equation is:
(§6) [formula] where Vmax=100 and k and n are unconstrained variables.

peak Nav1.5 = peak Nav1.5 (Homo sapiens, UniProt Q14524); assay: Whole-cell patch clamp, peak Nav1.5 current in stably transfected HEK cells; details: for peak Nav1.5 current amplitude, percent reduction: individual cell (raw data); for inhibition at 1 µM: HEK293, read-out: peak Nav1.5 current amplitude, percent reduction, 1 μM, individual cell (raw data); for inhibition at 10 µM: HEK293, read-out: peak Nav1.5 current amplitude, percent reduction, 10 μM, individual cell (raw data); for inhibition at 1000 µM: HEK293, read-out: peak Nav1.5 current amplitude, percent reduction, 1000 μM, individual cell (raw data)
Description: as §3, §4, §5, §6

hERG, sequence (Q12809 whole entry): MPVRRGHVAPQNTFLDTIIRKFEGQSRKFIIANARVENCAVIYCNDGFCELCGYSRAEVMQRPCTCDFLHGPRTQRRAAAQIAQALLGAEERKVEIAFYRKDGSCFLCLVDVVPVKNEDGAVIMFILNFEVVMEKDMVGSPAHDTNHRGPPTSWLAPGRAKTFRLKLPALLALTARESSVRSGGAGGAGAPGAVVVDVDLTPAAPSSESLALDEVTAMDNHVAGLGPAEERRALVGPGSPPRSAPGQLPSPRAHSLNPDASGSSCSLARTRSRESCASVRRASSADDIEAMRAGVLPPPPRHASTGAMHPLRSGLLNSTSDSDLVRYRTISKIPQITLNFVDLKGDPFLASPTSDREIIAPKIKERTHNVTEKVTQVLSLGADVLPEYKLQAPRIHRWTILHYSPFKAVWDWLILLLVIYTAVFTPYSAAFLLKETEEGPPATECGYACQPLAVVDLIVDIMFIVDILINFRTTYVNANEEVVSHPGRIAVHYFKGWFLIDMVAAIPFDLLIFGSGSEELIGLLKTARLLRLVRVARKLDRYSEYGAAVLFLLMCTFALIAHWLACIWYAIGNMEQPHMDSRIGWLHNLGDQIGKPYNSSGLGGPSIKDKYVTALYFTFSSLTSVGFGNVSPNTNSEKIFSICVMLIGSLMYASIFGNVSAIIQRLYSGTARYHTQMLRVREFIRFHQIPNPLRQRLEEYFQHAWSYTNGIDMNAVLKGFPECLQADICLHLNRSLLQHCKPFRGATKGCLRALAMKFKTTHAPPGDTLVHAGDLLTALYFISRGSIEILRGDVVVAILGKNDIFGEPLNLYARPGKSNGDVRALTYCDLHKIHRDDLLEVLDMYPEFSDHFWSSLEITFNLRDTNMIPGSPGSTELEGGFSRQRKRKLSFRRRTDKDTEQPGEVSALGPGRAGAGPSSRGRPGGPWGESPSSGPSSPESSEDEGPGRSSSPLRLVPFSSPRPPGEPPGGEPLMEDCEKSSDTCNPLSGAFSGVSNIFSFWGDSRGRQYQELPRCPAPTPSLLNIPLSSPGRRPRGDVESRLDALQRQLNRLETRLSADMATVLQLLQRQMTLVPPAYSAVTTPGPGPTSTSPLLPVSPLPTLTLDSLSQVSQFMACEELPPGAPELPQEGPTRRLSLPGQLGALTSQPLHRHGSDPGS
peak Nav1.5, sequence (Q14524 whole entry): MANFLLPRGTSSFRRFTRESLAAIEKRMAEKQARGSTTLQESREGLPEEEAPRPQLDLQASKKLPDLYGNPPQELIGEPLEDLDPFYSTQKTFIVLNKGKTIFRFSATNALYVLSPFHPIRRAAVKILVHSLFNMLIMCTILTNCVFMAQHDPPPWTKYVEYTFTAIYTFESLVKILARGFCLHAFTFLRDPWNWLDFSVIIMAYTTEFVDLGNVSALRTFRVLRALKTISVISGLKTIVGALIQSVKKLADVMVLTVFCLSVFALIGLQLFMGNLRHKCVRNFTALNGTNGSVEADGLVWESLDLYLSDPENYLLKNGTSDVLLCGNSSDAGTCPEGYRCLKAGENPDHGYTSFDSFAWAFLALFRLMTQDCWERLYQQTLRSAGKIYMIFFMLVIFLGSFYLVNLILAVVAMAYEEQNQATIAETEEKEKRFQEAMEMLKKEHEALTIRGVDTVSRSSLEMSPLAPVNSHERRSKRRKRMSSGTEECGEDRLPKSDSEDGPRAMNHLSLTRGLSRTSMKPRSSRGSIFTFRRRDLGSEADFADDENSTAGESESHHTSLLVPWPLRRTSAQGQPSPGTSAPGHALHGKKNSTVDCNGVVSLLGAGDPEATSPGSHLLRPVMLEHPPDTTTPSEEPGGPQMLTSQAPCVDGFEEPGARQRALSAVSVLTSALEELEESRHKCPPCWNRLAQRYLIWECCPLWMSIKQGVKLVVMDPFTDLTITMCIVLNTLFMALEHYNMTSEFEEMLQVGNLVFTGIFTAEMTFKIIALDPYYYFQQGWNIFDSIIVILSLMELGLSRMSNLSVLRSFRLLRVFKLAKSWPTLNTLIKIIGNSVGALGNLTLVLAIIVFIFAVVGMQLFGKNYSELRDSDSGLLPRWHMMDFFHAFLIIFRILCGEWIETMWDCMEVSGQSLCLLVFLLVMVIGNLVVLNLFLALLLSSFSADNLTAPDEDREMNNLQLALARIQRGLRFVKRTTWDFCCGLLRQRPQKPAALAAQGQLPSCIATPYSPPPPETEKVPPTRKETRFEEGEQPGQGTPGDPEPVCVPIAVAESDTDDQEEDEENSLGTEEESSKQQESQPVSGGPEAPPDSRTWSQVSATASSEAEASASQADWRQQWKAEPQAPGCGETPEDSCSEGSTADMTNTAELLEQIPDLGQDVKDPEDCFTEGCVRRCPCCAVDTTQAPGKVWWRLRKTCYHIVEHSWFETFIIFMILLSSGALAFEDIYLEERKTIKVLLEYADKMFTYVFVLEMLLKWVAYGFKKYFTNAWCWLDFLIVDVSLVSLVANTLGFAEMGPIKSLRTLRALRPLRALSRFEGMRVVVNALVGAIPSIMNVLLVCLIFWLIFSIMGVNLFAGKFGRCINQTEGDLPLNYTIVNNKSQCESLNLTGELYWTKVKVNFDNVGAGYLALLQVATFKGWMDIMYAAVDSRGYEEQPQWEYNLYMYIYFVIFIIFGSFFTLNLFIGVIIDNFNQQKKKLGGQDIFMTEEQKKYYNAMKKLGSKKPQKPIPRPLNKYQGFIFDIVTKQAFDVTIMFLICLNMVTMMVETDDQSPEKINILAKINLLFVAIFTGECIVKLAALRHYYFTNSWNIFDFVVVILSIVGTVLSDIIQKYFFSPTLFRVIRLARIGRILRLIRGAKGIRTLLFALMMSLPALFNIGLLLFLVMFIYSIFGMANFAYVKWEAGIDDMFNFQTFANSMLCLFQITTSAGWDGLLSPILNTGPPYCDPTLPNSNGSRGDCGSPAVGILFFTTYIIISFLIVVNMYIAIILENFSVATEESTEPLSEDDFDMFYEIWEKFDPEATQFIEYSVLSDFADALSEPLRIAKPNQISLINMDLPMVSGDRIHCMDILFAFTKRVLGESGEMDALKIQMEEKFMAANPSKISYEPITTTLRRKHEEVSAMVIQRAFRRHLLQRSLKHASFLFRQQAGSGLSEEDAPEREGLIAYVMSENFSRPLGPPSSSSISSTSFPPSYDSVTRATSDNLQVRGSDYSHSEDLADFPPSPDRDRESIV

Row | Compound | cytotoxicity compared with ropivacaine and bupivacaine (in words) (C2C12 Mouse myoblasts) | cytotoxicity compared with ropivacaine and bupivacaine (in words) (PC12 cells) | Block Duration (min) Motor (sciatic nerve [1]; dose conc 10 mM) [min] | Block Duration (min) Sensory (sciatic nerve [2]; dose conc 10 mM) [min] | hERG current amplitude, percent reduction (hERG; 1 μM) [%] | hERG current amplitude, percent reduction, mean ± SE (hERG; 1 μM) [%] | hERG current amplitude, percent reduction, mean ± SE (hERG; 10 μM) [%] | hERG current amplitude, percent reduction, mean ± SE (hERG; 100 μM) [%] | hERG current amplitude, percent reduction, mean ± SE (hERG; 300 μM) [%] | hERG current amplitude, percent reduction, mean ± SE (hERG; 1000 μM) [%] | peak Nav1.5 current amplitude, percent reduction (peak Nav1.5; 1 μM) [%] | peak Nav1.5 current amplitude, percent reduction, mean ± SE (peak Nav1.5; 1 μM) [%] | peak Nav1.5 current amplitude, percent reduction (peak Nav1.5; 10 μM) [%] | peak Nav1.5 current amplitude, percent reduction, mean ± SE (peak Nav1.5; 10 μM) [%] | peak Nav1.5 current amplitude, percent reduction, mean ± SE (peak Nav1.5; 100 μM) [%] | peak Nav1.5 current amplitude, percent reduction, mean ± SE (peak Nav1.5; 300 μM) [%] | peak Nav1.5 current amplitude, percent reduction, mean ± SE (peak Nav1.5; 1000 μM) [%] | inhibition at 1 µM (peak Nav1.5) [%] | inhibition at 10 µM (peak Nav1.5) [%] | inhibition at 1000 µM (peak Nav1.5) [%] | other results
1 | CCC[N@@+]1(CC(=O)OC)CCCC[C@H]1C(=O)Nc1c(C)cccc1C.[Br-] [Compound 4Sb, 2-((2,6-Dimethylphenyl)carbamoyl)-1-(2-methoxy-2-oxoethyl)-1-propylpiperidin-1-ium bromide] | significantly less cytotoxic than ropivacaine and bupivacaine | significantly less cytotoxic than ropivacaine and bupivacaine | 0 | 90 ± 30 | 0 | 0 ± 0 | 0 ± 0 | 1.5 ± 0.8 | 6.4 ± 1.1 | 18.3 ± 2.9 | 0 | 0 ± 0 | 0 | 0 ± 0 | 0 ± 0 | 4.2 ± 0.9 | 13.3 ± 2.9 | 0 | 0 | 13.8 | IC50 (C2C12 Mouse myoblasts; unit inferred): 19.3 mM; IC50 (PC12 cells; unit inferred): 20.1 mM; Block Duration (min) Motor (sciatic nerve [1]; dose conc 15 mM): 0 min; Sensory:Motor Block Ratio (sciatic nerve [2]; dose conc 10 mM): ∞; Sensory:Motor Block Ratio (sciatic nerve [2]; dose conc 15 mM): ∞; Block Duration (min) Sensory (sciatic nerve [2]; dose conc 15 mM): 200 ± 30 min; hERG current amplitude, percent reduction (hERG; 10 μM): 0%; peak Nav1.5 current amplitude, percent reduction (peak Nav1.5; 100 μM): 0%; inhibition at 100 µM (peak Nav1.5; HEK293, read-out: peak Nav1.5 current amplitude, percent reduction, 100 μM, individual cell (raw data)): 0%
2 | CCC[N@+]1(CC(=O)OC)CCCC[C@H]1C(=O)Nc1c(C)cccc1C.[Br-] [Compound 4Sa, 2-((2,6-Dimethylphenyl)carbamoyl)-1-(2-methoxy-2-oxoethyl)-1-propylpiperidin-1-ium bromide] | significantly less cytotoxic than ropivacaine and bupivacaine | significantly less cytotoxic than ropivacaine and bupivacaine | 100 ± 60 | 200 ± 60 | 0 | 0 ± 0 | 3.6 ± 0.5 | 16.8 ± 4.0 | 31.3 ± 2.0 | 51.6 ± 2.2 | 0 | 0 ± 0 | 0 | 0 ± 0 | 2.3 ± 1.4 | 5.6 ± 1.8 | 14.6 ± 3.4 | 0 | 0 | 11.2 | IC50 (C2C12 Mouse myoblasts): 14.6 mM; IC50 (PC12 cells): 19.2 mM; IC50 (hERG): 0.814 mM; inhibition at 300 µM (peak Nav1.5; HEK293, read-out: peak Nav1.5 current amplitude, percent reduction, 300 μM, individual cell (raw data)): 3.7%
